The values that follow are results of earlier work, collected in patent publication US8486889B1, “Composition and method for the treatment and prevention of endothelial dysfunction” (Advanced Medical Instruments, priority 2001, dated 2013).

For series [1] the following is noted: in vivo.
The conditions of series [2]: glucosamine combined with an NSAID, activity preserved.
The conditions of series [3]: in a fast dissolving tablet.
Test in series [4]: not given
This is another data set of the same source.

For series [5] the following is noted: those on ASA.
The conditions of series [6]: 325 mg ASA every other day.
The conditions of series [7]: aspirin use.
For series [8] the following is noted: simultaneous administration of zinc.
The conditions of series [9]: rabbit.
For series [10] the following is noted: 600 mg per day, double-blind trial.
The conditions of series [11]: Vioxx compared to naproxen.
The conditions of series [12]: rats, intragastric indomethacin, pre-treatment with zinc sulphate.
For series [13] the following is noted: taken orally, versus placebo.
For series [14] the following is noted: 500 mg/day, after one month.

Take `COc1ccc2[nH]cc(CCNC(C)=O)c2c1` [Melatonin]: the solubility result is “high lipid and aqueous solubility”.

As to `N[C@H]1C(O)O[C@H](CO)[C@@H](O)[C@@H]1O` (stereo partly shown) [Glucosamine], the solubility result is “very soluble in water”. In addition, the “absorbed in the GI tract” value in series [1] is on record as 90%. For the same compound, the “factor of decrease of the amount of NSAID required to produce an antiexudative result” value in [2] is listed as 2-2.7 times.

Turning to `CC(=O)Oc1ccccc1C(=O)O` [ASA, Acetylsalicylic acid], the “ASA absorbed by the buccal mucosa” value in [3] was 16-35%. Moreover, the “time to reach blood levels and inhibit platelet activity” value in series [4] (chewing the tablet) is 5 min. Moreover, the “time to reach peak blood levels” value in [4] (in vivo) is 30 min. In addition, the fewer strokes in [5] is 42%. For the same compound, the “reduction in the incidence of subsequent myocardial infarction, stroke, and death from cardiovascular causes” value in [6] (about 5 years) is on record as 25%. In addition, the “reduction in the incidence of first myocardial infarction” value in series [6] (about 5 years, 22,000 US male physicians) was 44%. Further, in series [7], the “reduction of the risk of breast cancer” value is on record as 20%, the “reduction of the risk of colorectal cancer” value is given as 50%, the “reduction of the risk of lung cancer” value is 30% and the “reduction of the risk of prostate cancer” value is 50%.

For the compound `[Zn]` [zinc], the salicylate-induced hearing loss entry in series [8] is given as “completely prevented”.

As for `CNC[C@H](O)c1ccc(O)c(O)c1` [epinephrine, Epinephrine], the “time to peak of effectiveness” value in [9] (2.5 mg sublingual tablet) was 20.8 min. Moreover, the “time to peak effectiveness” value in series [9] (injection) is 15.8 min.

As for Vitamin E, the “endothelial-dependent dilation of the brachial artery” value in [10] was “showed improvement”.

Consider `CS(=O)(=O)c1ccc(C2=C(c3ccccc3)C(=O)OC2)cc1` [Vioxx, rofecoxib], for which the “risk of myocardial infarction” value in series [11] is “four fold risk”.

For the compound `O=S(=O)([O-])[O-].[Zn+2]` [zinc sulphate], the mucosal ulcerations result in series [12] is listed as “completely prevented”. In addition, the “rate of gastric ulcer healing” value in series [13] is “three times the rate of a placebo”.

For the compound `O=C1O[C@H]([C@@H](O)CO)C(O)=C1O` [Ascorbic acid], in series [14], the “lowering of systolic blood pressure” value was 10%.
